# According to patent US20240050358A1, “PERSONAL CARE COMPOSITION” (Conopco, Inc., d/b/a UNILEVER, priority 2020, published 2024):
# Test system: interleukin (IL)-6
# Experiment: Human immune cell line THP-1 in vitro assay: IL-6 by ELISA after LPS co-treatment
# Format: cell-based
# Details: PMA-differentiated THP1-XBlue cells co-treated with E. coli LPS and composition for 24 hours; supernatant ELISA; percentage to LPS-treated cells (=100%); three repeats
# Description: Human Immune Cell Line THP-1 In Vitro Assay The following procedure was used to determine the anti-inflammation efficacy: THP1-XBlue™ (Cat No.: thpx-sp, InvivoGen, San Diego, CA) cells were cultured as suspense in RPMI 1640 medium supplemented with 10% fetal bovine serum (FBS), penicillin (10 U/mL)-streptomycin (10 μg/mL) (Gibco, Invitrogen, Carlsbad, CA). Cells were differentiated in 24-well plates at the density of 5×10^5 cells/well with 100 nM phorbol-12-myristate-13-acetate (PMA) for 72 hours. Cells were then co-treated with pure E. coli lipopolysaccharides (LPS) and various compositions in Table 1. […] Expression of IL-6 was calculated as the percentage to LPS-treated cells which was designated as 100%. P value was analysed by Student's t-test comparing combination groups and individual compound groups (expression of IL-6, three repeats for each group).
smiles,measurement,value
"CCCCCCC(O)CCCCCCCCCCC(=O)O (stereo not shown) [B, 12-hydroxystearic acid]",Expression of IL-6 (%),91.9%
